Measured values: patent US20220265629A1, “TREATMENT OF SYSTOLIC DYSFUNCTION AND HEART FAILURE WITH REDUCED EJECTION FRACTION WITH THE COMPOUND (R)-4-(1-((3-(DIFLUOROMETHYL)-1-METHYL-1H-PYRAZOL-4-YL)SULFONYL)-1-FLUOROETHYL)-N-(ISOXAZOL-3-YL)PIPERIDINE-1-CARBOXAMIDE” (MyoKardia, Inc., priority 2019, published 2022)

System: healthy subjects
Experiment: Single ascending oral dose study in healthy volunteers: transthoracic echocardiography (TTE) pharmacodynamics
Assay type: in vivo, human
Details: for DBP placebo-corrected change from Baseline (LS mean difference) / E/A ratio placebo-corrected change from Baseline (LS mean difference) / E/e′(lateral) placebo-corrected change from Baseline (LS mean difference) / HR placebo-corrected change from Baseline (LS mean difference) / IVCT placebo-corrected change from Baseline (LS mean difference) / IVRT placebo-corrected change from Baseline (LS mean difference) / LVEDD placebo-corrected change from Baseline (LS mean difference) / LVEDV placebo-corrected change from Baseline (LS mean difference) / LVEF placebo-corrected change from Baseline (LS mean difference) / LVESD placebo-corrected change from Baseline (LS mean difference) / LVESV placebo-corrected change from Baseline (LS mean difference) / LVFS placebo-corrected change from Baseline (LS mean difference) / LVGCS placebo-corrected change from Baseline (LS mean difference) / LVGLS placebo-corrected change from Baseline (LS mean difference) / MPI placebo-corrected change from Baseline (LS mean difference) / PEP placebo-corrected change from Baseline (LS mean difference) / Peak A placebo-corrected change from Baseline (LS mean difference) / Peak E placebo-corrected change from Baseline (LS mean difference) / SBP placebo-corrected change from Baseline (LS mean difference) / SET placebo-corrected change from Baseline (LS mean difference) / Stroke Volume placebo-corrected change from Baseline (LS mean difference): 6 hours post-dose
Protocol: To assess pharmacodynamic effects, serial echocardiograms were performed. The sonographers used in the study completed Echo protocol training and submitted an example of a study for evaluation to the core laboratory for evaluation. The core TTE lab certified that the sonographer was able to perform the TTEs at a level satisfactory for obtaining the required protocol data.
These criteria were chosen to prevent subjects from having prolongation of SET that might lead to myocardial ischemia. Dose escalation stopping criteria also included observation of a Baseline-corrected, group mean relative increase of >20% in any 2 sequential TTE assessments in at least 2 measures of LV contractility: LVOT-VTI, LVFS, LVEF, or LVSV in subjects receiving Compound I. Placebo-controlled evaluation may have been considered. For this comparison, subjects who received placebo may have been pooled across cohorts.
SET as determined by TTE was assessed using summary statistics. Observations and change from Baseline were summarized by treatment at each time point and the maximum change from Baseline determined for each subject. In addition, categorical analyses were performed on the number of subjects with a change from Baseline>50 msec and the number of subjects with a change from Baseline>75 msec in 1 or any 2 sequential TTE assessments. The relationship to Compound I plasma concentration to SET was explored. An analysis of SET placebo-adjusted change from Baseline was also performed.
As the Cmax occurred at between 4 and 6 hours in most of the subjects, the TTE obtained at 6 hours postclose was considered the best timepoint to explore the relationship between concentration and pharmacological effect. TTEs obtained at 1.5 and 3 hours after dosing were before the Cmax and at 9 hours were after the peak Cmax. Based on the preclinical data, it was considered unlikely that there would be a prolonged lag between the Cmax and peak pharmacological effect. As the exposure after the administration of the 350 mg and 525 mg doses were very similar, it was decided to not only present the results from these groups separately, but also to combine the data from these groups. By combining the data from the 2 groups, the number of subjects closed was increased from 6 to 12, thus increasing the power to observe a statistically significant change from Baseline in the TTE parameters of interest.
An analysis of placebo-corrected change from Baseline at 6 hours postclose by Compound I plasma concentration bins is presented in Table 6 below.

[1] = 350 mg and 525 mg combined, 6 hours postdose
[2] = 350 mg and 525 mg combined, 12 hours postdose
[3] = concentration exceeded 2000 ng/mL (median 2592 ng/mL)
[4] = plasma concentrations >2000 ng/mL, 6 hours postdose

SMILES: Cn1cc(S(=O)(=O)[C@@](C)(F)C2CCN(C(=O)Nc3ccon3)CC2)c(C(F)F)n1 [Compound I, (R)-4-(1-((3-(difluoromethyl)-1-methyl-1H-pyrazol-4-yl)sulfonyl)-1-fluoroethyl)-N-(isoxazol-3-yl)piperidine-1-carboxamide]
- LVEDD, highest observed change from Baseline (50 mg, 24 hours postdose): 0.103 (0.217) cm
- LVEF, maximum mean (SD) increase (100 mg, 12 hours postdose): 4.83 (2.65) %
- SET, observed mean (SD) increase (350 mg and 525 mg combined, 1.5 to 2 hours postdose): 18.0 (19.5) msec
- LVEDV, mean (SD) decrease [1]: −9.98 (7.83) mL
- LVESV, mean (SD) decrease [1]: −6.82 (5.99) mL
- LVOT-VTI, mean (SD) increase [1]: 2.28 (1.43) cm
- LVEDD, mean (SD) decrease [2]: −0.171 (0.177) cm
- LVSV, mean (SD) increase [2]: 7.623 (7.842) mL
- SET, largest observed mean (SD) increase (350 mg, 1.5 to 2 hours postdose): 19.2 (20.5) msec
- LVOT-VTI, maximum change from Baseline (350 mg, 6 hours postdose): 2.54 (1.78) cm
- LVSV, maximum mean (SD) increase (350 mg, 12 hours postdose): 10.848 (9.893) mL
- LVEDV, largest mean (SD) decrease (525 mg, 6 hours postdose): −12.5 (6.96) mL
- LVEF, maximum mean (SD) increase (525 mg, 6 hours postdose): 4.65 (1.45) %
- LVESV, largest mean (SD) decrease (525 mg, 6 hours postdose): −9.21 (3.18) mL
- LVEDD, largest observed mean (SD) decrease (525 mg, 12 hours postdose): −0.213 (0.221) cm
- LVESD, largest observed mean (SD) decrease (525 mg, 12 hours postdose): −0.455 (0.357) cm
- DBP placebo-corrected change from Baseline (LS mean difference) (plasma 0-1000 ng/mL): 2.277 mm Hg
- E/A ratio placebo-corrected change from Baseline (LS mean difference) (plasma 0-1000 ng/mL): 0.150
- E/e′(lateral) placebo-corrected change from Baseline (LS mean difference) (plasma 0-1000 ng/mL): −0.235
- HR placebo-corrected change from Baseline (LS mean difference) (plasma 0-1000 ng/mL): −1.070 bpm
- IVCT placebo-corrected change from Baseline (LS mean difference) (plasma 0-1000 ng/mL): 0.677 ms
- IVRT placebo-corrected change from Baseline (LS mean difference) (plasma 0-1000 ng/mL): 1.526 ms
- LVEDD placebo-corrected change from Baseline (LS mean difference) (plasma 0-1000 ng/mL): −0.014 cm
- LVEDV placebo-corrected change from Baseline (LS mean difference) (plasma 0-1000 ng/mL): -2.210 mL
- LVEF placebo-corrected change from Baseline (LS mean difference) (plasma 0-1000 ng/mL): 0.322%
- LVESD placebo-corrected change from Baseline (LS mean difference) (plasma 0-1000 ng/mL): 0.025 cm
- LVESV placebo-corrected change from Baseline (LS mean difference) (plasma 0-1000 ng/mL): -1.204 mL
- LVFS placebo-corrected change from Baseline (LS mean difference) (plasma 0-1000 ng/mL): −0.560%
- LVGCS placebo-corrected change from Baseline (LS mean difference) (plasma 0-1000 ng/mL): −1.076%
- LVGLS placebo-corrected change from Baseline (LS mean difference) (plasma 0-1000 ng/mL): −0.467%
- MPI placebo-corrected change from Baseline (LS mean difference) (plasma 0-1000 ng/mL): −0.007
- PEP placebo-corrected change from Baseline (LS mean difference) (plasma 0-1000 ng/mL): -2.190 ms
- Peak A placebo-corrected change from Baseline (LS mean difference) (plasma 0-1000 ng/mL): -3.09 cm/s
- Peak E placebo-corrected change from Baseline (LS mean difference) (plasma 0-1000 ng/mL): -966000 ×10⁻⁶ cm/s
- SBP placebo-corrected change from Baseline (LS mean difference) (plasma 0-1000 ng/mL): −0.623 mm Hg
- SET placebo-corrected change from Baseline (LS mean difference) (plasma 0-1000 ng/mL): 10.623 ms
- Stroke Volume placebo-corrected change from Baseline (LS mean difference) (plasma 0-1000 ng/mL): 2.631 mL
- DBP placebo-corrected change from Baseline (LS mean difference) (plasma 1001-2000 ng/mL): 2.937 mm Hg
- E/A ratio placebo-corrected change from Baseline (LS mean difference) (plasma 1001-2000 ng/mL): 0.177
- E/e′(lateral) placebo-corrected change from Baseline (LS mean difference) (plasma 1001-2000 ng/mL): 0.144
- HR placebo-corrected change from Baseline (LS mean difference) (plasma 1001-2000 ng/mL): 0.336 bpm
- IVCT placebo-corrected change from Baseline (LS mean difference) (plasma 1001-2000 ng/mL): 1.412 ms
- IVRT placebo-corrected change from Baseline (LS mean difference) (plasma 1001-2000 ng/mL): 0.148 ms
- LVEDD placebo-corrected change from Baseline (LS mean difference) (plasma 1001-2000 ng/mL): −0.041 cm
- LVEDV placebo-corrected change from Baseline (LS mean difference) (plasma 1001-2000 ng/mL): -6.100 mL
- LVEF placebo-corrected change from Baseline (LS mean difference) (plasma 1001-2000 ng/mL): 2.176%
- LVESD placebo-corrected change from Baseline (LS mean difference) (plasma 1001-2000 ng/mL): −0.159 cm
- LVESV placebo-corrected change from Baseline (LS mean difference) (plasma 1001-2000 ng/mL): -4.101 mL
- LVFS placebo-corrected change from Baseline (LS mean difference) (plasma 1001-2000 ng/mL): 3.549%
- LVGCS placebo-corrected change from Baseline (LS mean difference) (plasma 1001-2000 ng/mL): −1.383%
- LVGLS placebo-corrected change from Baseline (LS mean difference) (plasma 1001-2000 ng/mL): −1.274%
- MPI placebo-corrected change from Baseline (LS mean difference) (plasma 1001-2000 ng/mL): −0.021
- PEP placebo-corrected change from Baseline (LS mean difference) (plasma 1001-2000 ng/mL): -5.487 ms
- Peak A placebo-corrected change from Baseline (LS mean difference) (plasma 1001-2000 ng/mL): -2.87 cm/s
- Peak E placebo-corrected change from Baseline (LS mean difference) (plasma 1001-2000 ng/mL): -1.43 cm/s
- SBP placebo-corrected change from Baseline (LS mean difference) (plasma 1001-2000 ng/mL): 1.132 mm Hg
- SET placebo-corrected change from Baseline (LS mean difference) (plasma 1001-2000 ng/mL): 23.049 ms
- Stroke Volume placebo-corrected change from Baseline (LS mean difference) (plasma 1001-2000 ng/mL): 2.509 mL
- DBP placebo-corrected change from Baseline (LS mean difference) (plasma >2000 ng/mL): 1.540 mm Hg
- E/A ratio placebo-corrected change from Baseline (LS mean difference) (plasma >2000 ng/mL): −0.047
- E/e′(lateral) placebo-corrected change from Baseline (LS mean difference) (plasma >2000 ng/mL): −0.063
- HR placebo-corrected change from Baseline (LS mean difference) (plasma >2000 ng/mL): 2.871 bpm
- IVCT placebo-corrected change from Baseline (LS mean difference) (plasma >2000 ng/mL): 6.115 ms
- IVRT placebo-corrected change from Baseline (LS mean difference) (plasma >2000 ng/mL): 11.986 ms
- LVEDD placebo-corrected change from Baseline (LS mean difference) (plasma >2000 ng/mL): −0.115 cm
- LVEDV placebo-corrected change from Baseline (LS mean difference) (plasma >2000 ng/mL): -9.678 mL
- LVEF placebo-corrected change from Baseline (LS mean difference) (plasma >2000 ng/mL): 3.219%
- LVESD placebo-corrected change from Baseline (LS mean difference) (plasma >2000 ng/mL): −0.306 cm
- LVESV placebo-corrected change from Baseline (LS mean difference) (plasma >2000 ng/mL): -6.031 mL
- LVFS placebo-corrected change from Baseline (LS mean difference) (plasma >2000 ng/mL): 6.289%
- LVGCS placebo-corrected change from Baseline (LS mean difference) (plasma >2000 ng/mL): −2.854%
- LVGLS placebo-corrected change from Baseline (LS mean difference) (plasma >2000 ng/mL): −1.779%
- MPI placebo-corrected change from Baseline (LS mean difference) (plasma >2000 ng/mL): 0.033
- PEP placebo-corrected change from Baseline (LS mean difference) (plasma >2000 ng/mL): -2.131 ms
- Peak A placebo-corrected change from Baseline (LS mean difference) (plasma >2000 ng/mL): 657000 ×10⁻⁶ cm/s
- Peak E placebo-corrected change from Baseline (LS mean difference) (plasma >2000 ng/mL): -5.3 cm/s
- SBP placebo-corrected change from Baseline (LS mean difference) (plasma >2000 ng/mL): −1.572 mm Hg
- SET placebo-corrected change from Baseline (LS mean difference) (plasma >2000 ng/mL): 25.645 ms
- Stroke Volume placebo-corrected change from Baseline (LS mean difference) (plasma >2000 ng/mL): 8.197 mL
- LVEDD, mean decrease [3]: 0.12 cm
- LVEDV, mean decrease [3]: 9.68 mL
- LVEF, mean absolute increase [3]: 3.2%
- LVESD, mean decrease [3]: 0.31 cm
- LVESV, mean decrease [3]: 6.03 mL
- LVFS, mean absolute increase [3]: 6.3%
- LVGCS, mean absolute decrease [3]: 2.85%
- LVGLS, mean absolute decrease [3]: 1.78%
- LVSV, mean increase [3]: 8.2%
- SET, mean increase [3]: 25.7 ms
- diastolic function/relaxation (E/A ratio and E/e′) (plasma concentrations >2000 ng/mL): no significant effects
- SET, placebo-corrected change from Baseline (LS mean difference±SE) (plasma concentrations >2000 ng/mL (median 2425 ng/mL), 6 hours postdose): 25.6 ± 7.71 ms
- IVRT (mitral inflow doppler), placebo-corrected change from Baseline (LS mean difference±SE) [4]: 12.0 ± 3.92 ms
- LVEDV, placebo-corrected change from Baseline (LS mean difference±SE) [4]: -9.68 ± 2.95 mL
- LVEF, placebo-corrected change from Baseline (LS mean difference±SE) [4]: 3.22±1.48%
- LVESD, placebo-corrected change from Baseline (LS mean difference±SE) [4]: −0.306±0.077 cm
- LVESV, placebo-corrected change from Baseline (LS mean difference±SE) [4]: -6.03 ± 1.87 mL
- LVFS, placebo-corrected change from Baseline (LS mean difference±SE) [4]: 6.29±1.55%
- LVGCS, placebo-corrected change from Baseline (LS mean difference±SE) [4]: -2.85 ± 0.99%
- LVGLS, placebo-corrected change from Baseline (LS mean difference±SE) [4]: -1.78 ± 0.76%
- stroke volume, placebo-corrected change from Baseline (LS mean difference±SE) [4]: 8.20 ± 3.99 mL
